Source: patent US20250197409A1, “BIFUNCTIONAL COMPOUND AND PHARMACEUTICAL COMPOSITION COMPRISING THE BIFUNCTIONAL COMPOUND, AND METHOD FOR TREATING ANDROGEN RECEPTOR RELATED DISEASE BY USING THE SAME” (ANHORN MEDICINES CO., LTD., priority 2022, published 2025)
Where two headings read alike, the source gives them in different places.

Target: T1, androgen receptor (Homo sapiens, UniProt P10275, T878A)
T1 construct: host or cells: LNCaP.FGC
Assay: Androgen receptor degradation assay using Western blot analysis
Assay type: cell-based
Method: Cells not treated with any of the above-mentioned compounds are used as a negative control.
The internal loading control GAPDH was detected using a mouse monoclonal antibody (1:5000) (GTX627408, GeneTex International Corp., HsinChu City, Taiwan R.O.C.) and a goat anti-mouse HRP-conjugated secondary antibody (1:5000 dilution) (C04001, Croyez Bioscience Co., Ltd., Taipei City, Taiwan R.O.C.).
AR remaining percentage was determined by the intensity difference of AR signals (each was normalized by the corresponding internal loading control GAPDH) between the protein samples from the untreated cells (100%) and those from the treated cells. “Cpd. #” indicates the compound number hereinabove.
In addition, several compounds were selected to prepare a treatment stock solutions at 100 nM in RPMI medium. The treatment stock solutions were separately serially diluted (10×) with RPMI medium for treating LNCaP.FGC cells seeded with 2×10^5 cells per well in 24-well tissue culture plates. A calibration curve was determined by the serial diluted samples for each compound, and the concentration needed for 50% AR degradation (AR DC50) for each compound was calculated.

[1] = 24 h, read-out: Androgen Receptor Remaining (%), LNCaP.FGC cells, 100 nM, 24 hr, normalized to GAPDH, untreated cells = 100%
[2] = read-out: AR DC50 (concentration needed for 50% AR degradation); LNCaP.FGC cells, serial 10x dilutions from 100 nM
[3] = 24 h, LNCaP.FGC cells, 100 nM, 24 hr, normalized to GAPDH, untreated cells = 100%; read-out: Androgen Receptor Remaining (%)
[4] = LNCaP.FGC cells, serial 10x dilutions from 100 nM; read-out: AR DC50 (concentration needed for 50% AR degradation)

T1 sequence (P10275 whole entry T878A): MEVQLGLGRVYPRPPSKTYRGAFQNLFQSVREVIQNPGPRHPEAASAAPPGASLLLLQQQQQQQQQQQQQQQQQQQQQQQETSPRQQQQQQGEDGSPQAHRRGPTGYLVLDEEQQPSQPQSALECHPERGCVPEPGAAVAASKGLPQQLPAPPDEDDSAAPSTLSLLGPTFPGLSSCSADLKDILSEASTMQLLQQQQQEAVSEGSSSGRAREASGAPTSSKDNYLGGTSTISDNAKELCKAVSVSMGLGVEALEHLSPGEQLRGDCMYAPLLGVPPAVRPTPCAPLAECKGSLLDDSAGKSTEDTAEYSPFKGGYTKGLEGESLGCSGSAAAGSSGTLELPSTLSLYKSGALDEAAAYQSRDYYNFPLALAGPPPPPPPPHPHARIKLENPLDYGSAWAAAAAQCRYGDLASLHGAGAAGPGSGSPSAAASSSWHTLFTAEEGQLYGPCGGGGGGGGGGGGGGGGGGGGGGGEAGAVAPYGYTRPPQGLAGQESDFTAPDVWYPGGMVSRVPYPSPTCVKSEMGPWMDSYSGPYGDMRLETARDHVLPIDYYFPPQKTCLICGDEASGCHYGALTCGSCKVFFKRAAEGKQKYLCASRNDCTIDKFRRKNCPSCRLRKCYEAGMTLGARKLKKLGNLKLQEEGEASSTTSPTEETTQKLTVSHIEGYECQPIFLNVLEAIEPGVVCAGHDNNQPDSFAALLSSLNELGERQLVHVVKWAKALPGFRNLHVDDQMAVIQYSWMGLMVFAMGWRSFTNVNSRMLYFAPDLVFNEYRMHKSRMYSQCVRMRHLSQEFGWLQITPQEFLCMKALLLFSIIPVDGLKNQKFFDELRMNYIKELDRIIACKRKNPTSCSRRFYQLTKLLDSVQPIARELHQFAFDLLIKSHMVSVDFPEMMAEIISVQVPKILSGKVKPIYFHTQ
T1 sequence (Q96SW2 whole entry partner): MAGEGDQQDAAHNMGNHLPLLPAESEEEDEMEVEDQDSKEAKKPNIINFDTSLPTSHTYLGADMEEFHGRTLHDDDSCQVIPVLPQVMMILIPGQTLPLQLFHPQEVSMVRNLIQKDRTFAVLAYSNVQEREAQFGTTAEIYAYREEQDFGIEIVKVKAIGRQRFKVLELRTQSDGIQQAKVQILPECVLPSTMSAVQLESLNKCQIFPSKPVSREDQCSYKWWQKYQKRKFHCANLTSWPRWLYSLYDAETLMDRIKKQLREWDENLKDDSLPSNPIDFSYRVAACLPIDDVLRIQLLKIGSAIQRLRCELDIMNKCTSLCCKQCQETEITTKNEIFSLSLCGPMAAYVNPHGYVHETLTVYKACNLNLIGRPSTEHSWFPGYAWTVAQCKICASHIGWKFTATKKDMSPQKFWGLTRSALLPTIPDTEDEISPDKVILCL

Row | Compound | remaining activity at 0.1 µM [1] [%] | DC50 [2] [nM] | further results
1 | CCn1c2c(c3ccc(OCCN4CCN(c5ccc(C(=O)N[C@H]6CC[C@H](Oc7ccc(C#N)c(Cl)c7)CC6)nn5)[C@@H](C)C4)cc31)C(=O)N(C1CCC(=O)NC1=O)C2=O (some centres unmarked) [Compound 57] | 53 | – | –
2 | CC[C@H]1CN(CCOc2ccc3c4c(n(CC)c3c2)C(=O)N(C2CCC(=O)NC2=O)C4=O)CCN1c1ccc(C(=O)N[C@H]2CC[C@H](Oc3ccc(C#N)c(Cl)c3)CC2)nn1 (some centres unmarked) [Compound 58] | 65 | – | –
3 | CCn1c2c(c3ccc(OCCCN4C[C@H](C)N(c5ccc(C(=O)N[C@H]6CC[C@H](Oc7ccc(C#N)c(Cl)c7)CC6)nn5)C[C@H]4C)cc31)C(=O)N(C1CCC(=O)NC1=O)C2=O (some centres unmarked) [Compound 59] | 66 | – | –
4 | CC[C@H]1CN(CCCOc2ccc3c4c(n(CC)c3c2)C(=O)N(C2CCC(=O)NC2=O)C4=O)CCN1c1ccc(C(=O)N[C@H]2CC[C@H](Oc3ccc(C#N)c(Cl)c3)CC2)nn1 (some centres unmarked) [Compound 60] | 57 | – | –
5 | CCn1c2c(c3ccc(OCCCN4CCN(c5cnc(C(=O)N[C@H]6CC[C@H](Oc7ccc(C#N)c(Cl)c7)CC6)cn5)CC4)cc31)C(=O)N(C1CCC(=O)NC1=O)C2=O (some centres unmarked) [Compound 61] | 96 | – | –
6 | CCn1c2c(c3ccc(OCCN4CCN(c5cnc(C(=O)N[C@H]6CC[C@H](Oc7ccc(C#N)c(Cl)c7)CC6)cn5)CC4)cc31)C(=O)N(C1CCC(=O)NC1=O)C2=O (some centres unmarked) [Compound 62] | 65 | – | –
7 | CCn1c2c(c3ccc(OCCCN4CCN(c5ccc(C(=O)N[C@H]6CC[C@H](Oc7ccc(C#N)c(Cl)c7)CC6)nn5)CC4)cc31)C(=O)N([C@H]1CCC(=O)NC1=O)C2=O [Compound 63] | – | 10 to 25 | –
8 | CCn1c2c(c3ccc(OCCN4C5CCC4CN(c4ccc(C(=O)N[C@H]6CC[C@H](Oc7ccc(C#N)c(Cl)c7)CC6)nn4)C5)cc31)C(=O)N(C1CCC(=O)NC1=O)C2=O (some centres unmarked) [Compound 64] | 40 | 25 to 100 | –
9 | CCn1c2c(c3ccc(OCCCN4CCN(c5ccc(C(=O)N[C@H]6CC[C@H](Oc7ccc(C#N)c(Cl)c7)CC6)nn5)[C@@H](C)C4)cc31)C(=O)N(C1CCC(=O)NC1=O)C2=O (some centres unmarked) [Compound 65] | 32 | 25 to 100 | –
10 | Cn1c2c(c3ccc(NC(=O)CN4CCN(c5ccc(C(=O)N[C@H]6CC[C@H](Oc7ccc(C#N)c(Cl)c7)CC6)cn5)CC4)cc31)C(=O)N(C1CCC(=O)NC1=O)C2=O (some centres unmarked) [Compound 66] | – | – | remaining activity at 0.1 µM [3]: 100%
11 | Cn1c2c(c3ccc(NC(=O)CN4CCCN(c5ccc(C(=O)N[C@H]6CC[C@H](Oc7ccc(C#N)c(Cl)c7)CC6)nn5)CC4)cc31)C(=O)N(C1CCC(=O)NC1=O)C2=O (some centres unmarked) [Compound 68] | – | – | remaining activity at 0.1 µM [3]: 81%
12 | Cn1c2c(c3ccc(NC(=O)CN4CCC5(CC4)CN(c4ccc(C(=O)N[C@H]6C(C)(C)[C@H](Oc7ccc(C#N)c(Cl)c7)C6(C)C)nn4)C5)cc31)C(=O)N(C1CCC(=O)NC1=O)C2=O (some centres unmarked) [Compound 69] | – | – | remaining activity at 0.1 µM [3]: 51%
13 | CCn1c2c(c3ccc(OCCN4CC5CCC(C4)N5c4ccc(C(=O)N[C@H]5CC[C@H](Oc6ccc(C#N)c(Cl)c6)CC5)nn4)cc31)C(=O)N(C1CCC(=O)NC1=O)C2=O (some centres unmarked) [Compound 70] | 62 | – | –
14 | CCn1c2c(c3ccc(OCCCN4CC5CCC(C4)N5c4ccc(C(=O)N[C@H]5CC[C@H](Oc6ccc(C#N)c(Cl)c6)CC5)nn4)cc31)C(=O)N(C1CCC(=O)NC1=O)C2=O (some centres unmarked) [Compound 71] | 77 | – | –
15 | CCn1c2c(c3ccc(OCCCN4CC5(CCN(c6ccc(C(=O)N[C@H]7CC[C@H](Oc8ccc(C#N)c(Cl)c8)CC7)nn6)CC5)C4)cc31)C(=O)N(C1CCC(=O)NC1=O)C2=O (some centres unmarked) [Compound 72] | – | < 10 | Androgen Receptor Remaining (%) (LNCaP.FGC cells, 100 nM, 24 hr, normalized to GAPDH, untreated cells = 100%): 26%
16 | CCn1c2c(c3ccc(OCCN4CCN(c5ccc(C(=O)N[C@H]6CC[C@H](Oc7ccc(C#N)c(Cl)c7)CC6)nn5)C[C@H]4C)cc31)C(=O)N(C1CCC(=O)NC1=O)C2=O (some centres unmarked) [Compound 73] | 41 | 25 to 100 | –
17 | CCn1c2c(c3ccc(OCCCN4CCN(c5ccc(C(=O)N[C@H]6CC[C@H](Oc7ccc(C#N)c(Cl)c7)CC6)nn5)C[C@H]4C)cc31)C(=O)N(C1CCC(=O)NC1=O)C2=O (some centres unmarked) [Compound 74] | 40 | 25 to 100 | –
18 | Cn1c2c(c3ccc(OCCN4CCCN(c5ccc(C(=O)N[C@H]6CC[C@H](Oc7ccc(C#N)c(Cl)c7)CC6)nn5)CC4)cc31)C(=O)N(C1CCC(=O)NC1=O)C2=O (some centres unmarked) [Compound 75] | – | – | remaining activity at 0.1 µM [3]: 26%; DC50 [4]: 10 to 25 nM
19 | CCn1c2c(c3ccc(OCCCN4[C@H](C)CN(c5ccc(C(=O)N[C@H]6CC[C@H](Oc7ccc(C#N)c(Cl)c7)CC6)nn5)C[C@@H]4C)cc31)C(=O)N(C1CCC(=O)NC1=O)C2=O (some centres unmarked) [Compound 76] | 78 | – | –
20 | CCn1c2c(c3ccc(OCCN4[C@H](C)CN(c5ccc(C(=O)N[C@H]6CC[C@H](Oc7ccc(C#N)c(Cl)c7)CC6)nn5)C[C@@H]4C)cc31)C(=O)N(C1CCC(=O)NC1=O)C2=O (some centres unmarked) [Compound 77] | 92 | – | –
21 | CCn1c2c(c3ccc(OCCCN4CCN(c5ccc(C(=O)N[C@H]6CC[C@H](N(C)c7ccc(C#N)c(Cl)c7)CC6)nn5)CC4)cc31)C(=O)N(C1CCC(=O)NC1=O)C2=O (some centres unmarked) [Compound 78] | 57 | 10 to 25 | –
22 | CCn1c2c(c3ccc(OCCN4CCN(c5ccc(C(=O)N[C@H]6CC[C@H](N(C)c7ccc(C#N)c(Cl)c7)CC6)nn5)CC4)cc31)C(=O)N(C1CCC(=O)NC1=O)C2=O (some centres unmarked) [Compound 79] | 60 | – | –
23 | CCn1c2c(c3ccc(OCCN4CC5(CCN(c6ccc(C(=O)N[C@H]7CC[C@H](Oc8ccc(C#N)c(Cl)c8)CC7)nn6)CC5)C4)cc31)C(=O)N(C1CCC(=O)NC1=O)C2=O (some centres unmarked) [Compound 80] | 22 | 10 to 25 | –
24 | CCn1c2c(c3ccc(OCCN4CCC5(CC4)CN(c4ccc(C(=O)N[C@H]6CC[C@H](Oc7ccc(C#N)c(Cl)c7)CC6)nn4)C5)cc31)C(=O)N(C1CCC(=O)NC1=O)C2=O (some centres unmarked) [Compound 81] | 9 | < 10 | –
25 | N#Cc1ccc(O[C@H]2CC[C@H](NC(=O)c3ccc(N4CCN(CCCOc5ccc6c7c(n(CC(F)F)c6c5)C(=O)N(C5CCC(=O)NC5=O)C7=O)CC4)nn3)CC2)cc1Cl (some centres unmarked) [Compound 82] | 35 | 25 to 100 | –
26 | CN(c1ccc(C#N)c(Cl)c1)[C@H]1CC[C@H](NC(=O)c2ccc(N3CCN(CCCOc4ccc5c6c(n(CC(F)F)c5c4)C(=O)N(C4CCC(=O)NC4=O)C6=O)CC3)nn2)CC1 (some centres unmarked) [Compound 83] | 41 | 10 to 25 | –
27 | C[Si](C)(C)CCOCn1c2c(c3ccc(OCCCN4CCN(c5ccc(C(=O)N[C@H]6CC[C@H](Oc7ccc(C#N)c(Cl)c7)CC6)nn5)CC4)cc31)C(=O)N(C1CCC(=O)NC1=O)C2=O (some centres unmarked) [Compound 84] | 62 | – | –
28 | N#Cc1ccc(O[C@H]2CC[C@H](NC(=O)c3ccc(N4CCN(CCCOc5ccc6c7c(n(CO)c6c5)C(=O)N(C5CCC(=O)NC5=O)C7=O)CC4)nn3)CC2)cc1Cl (some centres unmarked) [Compound 85] | 20 | 25 to 100 | –
29 | N#Cc1ccc(O[C@H]2CC[C@H](NC(=O)c3ccc(N4CCN(CCCOc5ccc6c7c([nH]c6c5)C(=O)N(C5CCC(=O)NC5=O)C7=O)CC4)nn3)CC2)cc1Cl (some centres unmarked) [Compound 86] | – | – | remaining activity at 0.1 µM [3]: 20%; DC50 [4]: 25 to 100 nM
30 | Cn1c2c(c3ccc(OCCCN4CCCN(c5ccc(C(=O)N[C@H]6CC[C@H](Oc7ccc(C#N)c(Cl)c7)CC6)nn5)CC4)cc31)C(=O)N(C1CCC(=O)NC1=O)C2=O (some centres unmarked) [Compound 87] | – | – | remaining activity at 0.1 µM [3]: 21%; DC50 [4]: 25 to 100 nM
